Laboratory results from ChEMBL document CHEMBL5550211 (J Med Chem, 2024).
Values after ≈ are worked out from the molar mass of the structure shown. Active and inactive are the calls of the source. The calls are words filed in the database; no cut-off is given here.

What was measured:
[1] = Chemical stability in MeOH/NaHCO3/cysteine assessed as drug metabolism assessed as SN2 substitution after 50 degreeC overnight incubation; format: physicochemical; settings: read-out: Drug metabolism
[2] = Unbound drug concentration in mouse plasma at 30 mg/kg, po after 2 hrs; format: ADME, organism-based; settings: in vivo
[3] = Drug concentration in mouse brain at 10 mg/kg, po after 2 hrs; format: ADME, organism-based; settings: read-out: Ct
[4] = Toxicity in Nu/nu NCR mouse intracerebrally xenografted with human A-375 cells harboring BRAF V600E mutant assessed as animal death at 5 to 10 mg/kg, po measured after 60 days; format: organism-based; settings: in vivo, 1440 h, dose 5-10 mg/kg, time 60 day
[5] = Unbound drug concentration in mouse brain at 30 mg/kg, po after 4 hrs; format: ADME, organism-based; settings: in vivo
[6] = test system: A-375; test: Antitumor activity against human A-375 cells harboring BRAF V600E mutant xenografted in Nu/nu NCR mouse assessed as IC90 coverage time at 10 mg/kg, po BID for 60 days; format: functional; settings: time 60 day
[7] = Drug concentration in mouse brain at 30 mg/kg, po after 2 hrs; format: ADME, organism-based; settings: read-out: Ct
[8] = Drug concentration in mouse plasma at 5 mg/kg, po after 2 hrs; format: ADME, organism-based
[9] = Protein binding in rat brain assessed as unbound fraction; format: ADME, tissue-based
[10] = Drug concentration in mouse plasma at 30 mg/kg, po after 4 hrs; format: ADME, organism-based
[11] = AUCinfinity in mouse at 10 mg/kg, po; format: ADME, organism-based; settings: in vivo
[12] = Drug concentration in mouse plasma at 10 mg/kg, po after 2 hrs; format: ADME, organism-based
[13] = Tmax in mouse at 10 mg/kg, po; format: ADME, organism-based; settings: in vivo
[14] = Oral bioavailability in mouse at 30 mg/kg; format: ADME, organism-based; settings: in vivo
[15] = Cmax in mouse at 5 mg/kg, po; format: ADME, organism-based; settings: in vivo
[16] = Plasma protein binding in human assessed as unbound fraction; format: ADME, cell-free
[17] = Drug concentration in mouse brain at 30 mg/kg, po after 4 hrs; format: ADME, organism-based; settings: read-out: Ct
[18] = Unbound drug concentration in mouse plasma at 10 mg/kg, po after 4 hrs; format: ADME, organism-based; settings: in vivo
[19] = Solubility in buffer at pH 7.4; format: physicochemical
[20] = Apparent permeability across apical to basolateral side in LLC-PK1 cells; format: ADME, cell-based, Sus scrofa; settings: pig
[21] = test system: A-375; test: Antitumor activity against human A-375 cells harboring BRAF V600E mutant xenografted in Nu/nu NCR mouse assessed as tumor flux inhibition at 10 to 30 mg/kg, po BID for 60 days; format: functional; parameters: scale not given: the % may be the effect or the level left; settings: dose 10-30 mg/kg, time 60 day
[22] = Drug concentration in mouse brain at 5 mg/kg, po after 4 hrs; format: ADME, organism-based; settings: read-out: Ct
[23] = Tmax in mouse at 30 mg/kg, po; format: ADME, organism-based; settings: in vivo
[24] = test system: A-375; test: Antitumor activity against human A-375 cells harboring BRAF V600E mutant xenografted in Nu/nu NCR mouse assessed as IC90 coverage time at 10 mg/kg, po BID for 21 days; format: functional; settings: time 21 day
[25] = test system: A-375; test: Antitumor activity against human A-375 cells harboring BRAF V600E mutant xenografted in Nu/nu NCR mouse assessed as tumor regression at 5 mg/kg, po BID for 21 days; format: functional, organism-based; settings: time 21.0 day
[26] = Drug concentration in mouse brain at 5 mg/kg, po after 2 hrs; format: ADME, organism-based; settings: read-out: Ct
[27] = Unbound drug concentration in mouse brain at 5 mg/kg, po after 4 hrs; format: ADME, organism-based; settings: in vivo
[28] = Protein binding in mouse brain assessed as unbound fraction; format: ADME, tissue-based
[29] = Unbound drug concentration in mouse plasma at 5 mg/kg, po after 4 hrs; format: ADME, organism-based; settings: in vivo
[30] = Unbound drug concentration in mouse plasma at 30 mg/kg, po after 4 hrs; format: ADME, organism-based; settings: in vivo
[31] = Protein binding in dog brain assessed as unbound fraction; format: ADME, tissue-based, Canis lupus familiaris
[32] = Protein binding in cynomolgus monkey brain assessed as unbound fraction; format: ADME, tissue-based, Macaca fascicularis
[33] = Cmax in mouse at 30 mg/kg, po; format: ADME, organism-based; settings: in vivo
[34] = Dissociation constant, pKa of the compound; format: physicochemical
[35] = Oral bioavailability in mouse at 5 mg/kg; format: ADME, organism-based; settings: in vivo
[36] = Unbound drug concentration in mouse plasma at 5 mg/kg, po after 2 hrs; format: ADME, organism-based; settings: in vivo
[37] = Unbound drug concentration in mouse brain at 10 mg/kg, po after 4 hrs; format: ADME, organism-based; settings: in vivo
[38] = Drug concentration in mouse plasma at 10 mg/kg, po after 4 hrs; format: ADME, organism-based
[39] = Toxicity in Nu/nu NCR mouse intracerebrally xenografted with human A-375 cells harboring BRAF V600E mutant assessed as body weight loss at 5 to 10 mg/kg, po measured after 60 days; format: organism-based; settings: in vivo, 1440 h, dose 5-10 mg/kg, time 60 day
[40] = Volume of distribution at steady state in mouse at 3 mg/kg, iv; format: ADME, organism-based; settings: in vivo, read-out: Vdss
[41] = Unbound drug concentration in mouse brain at 5 mg/kg, po after 2 hrs; format: ADME, organism-based; settings: in vivo
[42] = Clearance in mouse at 3 mg/kg, iv; format: ADME, organism-based; settings: in vivo
[43] = Solubility in stimulated gastric fluid at pH 1.2; format: ADME; settings: simulated gastric fluid
[44] = test system: A-375; test: Antitumor activity against human A-375 cells harboring BRAF V600E mutant xenografted in Nu/nu NCR mouse assessed as tumor regression at 10 to 30 mg/kg, po BID for 60 days; format: functional; settings: dose 10-30 mg/kg, time 60 day
[45] = target: Voltage-gated inwardly rectifying potassium channel KCNH2 (Homo sapiens, UniProt Q12809); test: Inhibition of hERG; format: toxicity
[46] = AUCinfinity in mouse at 30 mg/kg, po; format: ADME, organism-based; settings: in vivo
[47] = Solubility in stimulated intestinal fluid at pH 6.5; format: ADME; settings: simulated intestinal fluid
[48] = Plasma protein binding in mouse assessed as unbound fraction; format: ADME, cell-free
[49] = Cmax in mouse at 10 mg/kg, po; format: ADME, organism-based; settings: in vivo
[50] = Oral bioavailability in mouse at 10 mg/kg; format: ADME, organism-based; settings: in vivo
[51] = Chemical stability in MeOH/NaHCO3/glutathione assessed as drug metabolism assessed as SN2 substitution after 50 degreeC overnight incubation; format: physicochemical; settings: read-out: Drug metabolism
[52] = Drug concentration in mouse brain at 10 mg/kg, po after 4 hrs; format: ADME, organism-based; settings: read-out: Ct
[53] = Unbound drug concentration in mouse brain at 10 mg/kg, po after 2 hrs; format: ADME, organism-based; settings: in vivo
[54] = test system: A-375; test: Antitumor activity against human A-375 cells harboring BRAF V600E mutant xenografted in Nu/nu NCR mouse assessed as IC90 coverage time at 30 mg/kg, po BID for 60 days; format: functional; settings: time 60 day
[55] = test system: A-375; test: Antitumor activity against human A-375 cells harboring BRAF V600E mutant xenografted in Nu/nu NCR mouse assessed as IC90 coverage time at 5 mg/kg, po BID for 21 days; format: functional; settings: time 21 day
[56] = Half-life in mouse at 3 mg/kg, iv; format: ADME, organism-based; settings: in vivo
[57] = test system: A-375; test: Antitumor activity against human A-375 cells harboring BRAF V600E mutant xenografted in Nu/nu NCR mouse assessed as tumor regression at 10 mg/kg, po BID measured after 2 weeks; format: functional, organism-based
[58] = Unbound drug concentration in mouse brain at 30 mg/kg, po after 2 hrs; format: ADME, organism-based; settings: in vivo
[59] = Toxicity in Nu/nu NCR mouse subcutaneously xenografted with human A-375 cells harboring BRAF V600E mutant assessed as body weight loss at 5 to 10 mg/kg, po measured after 21 days; format: organism-based; settings: in vivo, 504 h, dose 5-10 mg/kg, time 21 day
[60] = Drug concentration in mouse plasma at 5 mg/kg, po after 4 hrs; format: ADME, organism-based
[61] = Plasma protein binding in cynomolgus monkey assessed as unbound fraction; format: ADME, cell-free, Macaca fascicularis
[62] = Drug concentration in mouse plasma at 30 mg/kg, po after 2 hrs; format: ADME, organism-based
[63] = test system: A-375; test: Antitumor activity against human A-375 cells harboring BRAF V600E mutant xenografted in Nu/nu NCR mouse assessed as IC90 coverage at 5 mg/kg, po BID for 60 days; format: functional, organism-based; settings: time 60.0 day
[64] = AUCinfinity in mouse at 5 mg/kg, po; format: ADME, organism-based; settings: in vivo
[65] = Plasma protein binding in rat assessed as unbound fraction; format: ADME, cell-free
[66] = Plasma protein binding in dog assessed as unbound fraction; format: ADME, cell-free, Canis lupus familiaris
[67] = Unbound drug concentration in mouse plasma at 10 mg/kg, po after 2 hrs; format: ADME, organism-based; settings: in vivo
[68] = Tmax in mouse at 5 mg/kg, po; format: ADME, organism-based; settings: in vivo
[69] = target: T1, Serine/threonine-protein kinase B-raf (Homo sapiens, UniProt P15056, V600E); test: Inhibition of BRAF V600E mutant in human A-375 cells assessed as reduction in ERK phosphorylation; format: cell-based
[70] = Substrate activity at P-gp in LLC-PK1 cells assessed as efflux ratio of apparent permeability from basolateral to apical side over apical to basolateral side; format: ADME, cell-based, Sus scrofa; settings: pig
[71] = Substrate activity at BCRP in LLC-PK1 cells assessed as efflux ratio of apparent permeability from basolateral to apical side over apical to basolateral side; format: ADME, cell-based, Sus scrofa; settings: pig
[72] = target: T1, Serine/threonine-protein kinase B-raf; test: Inhibition of 6-His tagged BRAF V600E mutant (445 to 723 residues) (unknown origin)

T1 sequence (P15056 2-766 V600E limits assumed): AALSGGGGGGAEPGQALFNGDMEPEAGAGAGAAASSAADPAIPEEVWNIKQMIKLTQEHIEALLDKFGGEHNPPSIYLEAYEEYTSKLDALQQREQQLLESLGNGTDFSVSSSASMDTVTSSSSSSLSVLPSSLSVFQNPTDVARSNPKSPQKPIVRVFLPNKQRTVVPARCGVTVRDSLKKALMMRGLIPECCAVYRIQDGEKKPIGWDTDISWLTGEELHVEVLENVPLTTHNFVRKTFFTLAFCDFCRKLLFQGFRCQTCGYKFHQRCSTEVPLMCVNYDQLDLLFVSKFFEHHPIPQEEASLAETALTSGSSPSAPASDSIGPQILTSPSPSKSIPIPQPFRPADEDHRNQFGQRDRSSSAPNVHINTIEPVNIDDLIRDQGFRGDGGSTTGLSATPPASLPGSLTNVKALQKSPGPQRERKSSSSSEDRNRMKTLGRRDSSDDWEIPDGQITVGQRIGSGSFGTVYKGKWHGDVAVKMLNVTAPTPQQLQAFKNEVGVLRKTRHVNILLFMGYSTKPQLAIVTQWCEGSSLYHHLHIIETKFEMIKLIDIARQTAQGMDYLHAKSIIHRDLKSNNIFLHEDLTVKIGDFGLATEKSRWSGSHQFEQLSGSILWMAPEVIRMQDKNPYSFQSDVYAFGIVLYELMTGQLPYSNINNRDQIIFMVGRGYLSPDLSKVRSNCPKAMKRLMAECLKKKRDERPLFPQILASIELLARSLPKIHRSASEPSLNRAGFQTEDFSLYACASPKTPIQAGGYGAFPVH
Chain of Voltage-gated inwardly rectifying potassium channel KCNH2 (Q12809 whole entry): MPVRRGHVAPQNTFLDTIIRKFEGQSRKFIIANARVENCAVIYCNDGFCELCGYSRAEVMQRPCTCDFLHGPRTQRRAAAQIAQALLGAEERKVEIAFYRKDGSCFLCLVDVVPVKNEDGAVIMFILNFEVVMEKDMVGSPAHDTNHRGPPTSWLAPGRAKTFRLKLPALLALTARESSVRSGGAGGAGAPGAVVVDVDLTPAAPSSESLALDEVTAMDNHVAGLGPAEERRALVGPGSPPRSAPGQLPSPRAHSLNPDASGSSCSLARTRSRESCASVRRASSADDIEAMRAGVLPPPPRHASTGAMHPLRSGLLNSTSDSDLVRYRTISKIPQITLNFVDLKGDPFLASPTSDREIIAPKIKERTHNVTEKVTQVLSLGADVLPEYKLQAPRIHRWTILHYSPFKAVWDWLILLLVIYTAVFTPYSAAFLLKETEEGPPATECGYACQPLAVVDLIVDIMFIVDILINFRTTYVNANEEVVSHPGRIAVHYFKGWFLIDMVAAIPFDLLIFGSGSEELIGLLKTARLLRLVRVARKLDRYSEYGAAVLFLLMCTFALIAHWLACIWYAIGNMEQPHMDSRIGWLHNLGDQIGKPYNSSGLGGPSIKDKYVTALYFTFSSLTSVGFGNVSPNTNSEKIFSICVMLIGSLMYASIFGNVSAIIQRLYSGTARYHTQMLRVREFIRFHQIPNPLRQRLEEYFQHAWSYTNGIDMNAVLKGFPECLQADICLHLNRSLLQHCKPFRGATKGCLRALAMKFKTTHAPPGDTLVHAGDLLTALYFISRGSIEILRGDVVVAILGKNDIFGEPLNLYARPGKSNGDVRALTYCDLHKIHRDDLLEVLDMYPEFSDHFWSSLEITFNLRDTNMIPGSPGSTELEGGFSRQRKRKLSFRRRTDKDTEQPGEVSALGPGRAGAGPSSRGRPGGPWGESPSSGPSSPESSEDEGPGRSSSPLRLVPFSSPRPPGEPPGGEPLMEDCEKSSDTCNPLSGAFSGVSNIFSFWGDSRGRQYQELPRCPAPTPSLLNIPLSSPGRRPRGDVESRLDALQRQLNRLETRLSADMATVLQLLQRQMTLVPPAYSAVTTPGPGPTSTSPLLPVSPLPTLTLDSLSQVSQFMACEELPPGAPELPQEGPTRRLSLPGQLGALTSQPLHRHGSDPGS

Cc1c(Nc2c(F)ccc(NS(=O)(=O)CCCF)c2Cl)ccc2ncn(C)c(=O)c12 [TINLORAFENIB]
degraded [1]: < 1% | Cp(f) [2]: 300 ng/mL | concentration at 2 h [3]: 1600 ng/g | Activity [4]: Non-Toxic | Drug uptake(free) [5]: 0.18 µg/g | Time [6]: ~16 h | concentration at 2 h [7]: 2400 ng/g | concentration at 2 h [8]: 4200 ng/mL | fraction unbound [9]: 0.068 | concentration at 4 h [10]: 12000 ng/mL | AUC(0-inf) [11]: 86000 ng·h/mL | concentration at 2 h [12]: 11000 ng/mL | Tmax [13]: 1 h | bioavailability [14]: 130% | Cmax [15]: 4700 ng/mL | fraction unbound [16]: 0.009 | concentration at 4 h [17]: 2100 ng/g | Cp(f) [18]: 190 ng/mL | solubility [19]: 9.1 µg/mL (≈ 19.9 µM) | Papp A→B [20]: 36 ×10⁻⁶ cm/s | Activity [21]: >99% | concentration at 4 h [22]: 530 ng/g | Tmax [23]: 1 h | Time [24]: >16 h | Activity [25]: Active | concentration at 2 h [26]: 590 ng/g | Drug uptake(free) [27]: 0.046 µg/g | fraction unbound [28]: 0.087 | Cp(f) [29]: 59 ng/mL | Cp(f) [30]: 230 ng/mL | fraction unbound [31]: 0.073 | fraction unbound [32]: 0.068 | Cmax [33]: 18000 ng/mL | pKa [34]: 7.41 | bioavailability [35]: 126% | Cp(f) [36]: 79 ng/mL | Drug uptake(free) [37]: 0.14 µg/g | concentration at 4 h [38]: 9900 ng/mL | Activity [39]: < 5% | Vd [40]: 0.59 L/kg | Drug uptake(free) [41]: 0.051 µg/g | clearance [42]: 3.7 mL/min/kg | solubility [43]: 132 µg/mL (≈ 289 µM) | Activity [44]: >90% | IC50 [45]: 49700 nM | AUC(0-inf) [46]: 176000 ng·h/mL | solubility [47]: 7.6 µg/mL (≈ 16.6 µM) | fraction unbound [48]: 0.019 | Cmax [49]: 14000 ng/mL | F [50]: 192% | degraded [51]: < 1% | concentration at 4 h [52]: 1600 ng/g | Drug uptake(free) [53]: 0.14 µg/g | Time [54]: >24 h | Time [55]: ~8 h | half-life [56]: 1.9 h | Activity [57]: Active | Drug uptake(free) [58]: 0.21 µg/g | Activity [59]: < 5% | concentration at 4 h [60]: 3100 ng/mL | fraction unbound [61]: 0.011 | concentration at 2 h [62]: 16000 ng/mL | Activity [63]: inactive | AUC(0-inf) [64]: 28000 ng·h/mL | fraction unbound [65]: 0.003 | fraction unbound [66]: 0.017 | Cp(f) [67]: 220 ng/mL | Tmax [68]: 1 h

CCCS(=O)(=O)Nc1ccc(F)c(Nc2ccc3ncn(C)c(=O)c3c2C)c1Cl
IC50 [69]: 35.5 nM | Ratio [70]: 1.3 | Ratio [71]: 1.2 | IC50 [72]: 14.5 nM | Papp A→B [20]: 28 ×10⁻⁶ cm/s | pKa [34]: 7.88
